Source: patent publication US10543223B2, “Mannose derivatives useful for treating pathologies associated with adherent E. coli” (ENTEROME, priority 2015, dated 2020)
Several values for one entry are separate records, joined by “and”; a condition that tells them apart may be missing. Equal values may be shown once. Read-outs that look alike come from different tables or passages of the source.

Tests used:
[1] = Plasma concentrations and pharmacokinetics after IV and PO administration to rats; format: in vivo, Sprague Dawley rats; details: for % AUCextra / AUC(0-inf) / AUC(0-t) / Cmax / Tmax: DMSO, based on mean data
Method: Plasma and faeces concentrations after administration of Compound 1b and for compound 13 of WO 2014/016361 at 1 mg/kg by intravenous route and 10 mg/kg by oral route to Sprague Dawley rats
At least 8 point calibration standards are run using standard conditions which consist to LC-MS/MS system with C18 column after precipitation of proteins with acetonitrile before the start of the analytical test.
For the plasma, 100 μL of blank rat plasma are directly spiked with the compounds before being precipitate with 300 μL of acetonitrile.
The concentration ranges tested are: • 0.5 ng/mL to 1000 ng/mL for plasma, • 4 to 2000 ng/g for faeces, corresponding to 1 to 500 ng/mL of faeces homogenate. 3. In-Life Part
12 male Sprague Dawley rats around 6-7 week old are used.
At prescribed times, blood is collected. Animals are briefly anaesthetised with Isoflurane® using an anaesthetic system (Équipement Vétérinaire Minerve) during blood samplings.
Blood samples are centrifuged at 2500 rpm at +4° C. (between 0 and 9° C.), the plasma is removed and placed into labelled polypropylene tubes. Individual plasma samples are stored frozen at −20° C. (target temperature) until analysis.
100 μL of the plasma sample are taken and 300 μL of acetonitrile are added. After protein precipitation, analysis is performed using LC-MS/MS determination according to previous analytical test results.
Concentrations of the samples are calculated directly from chromatograms after automatic integration by Analyst® 1.5.1 and expressed as ng/mL.
Mean plasma concentrations are calculated (when calculable, i.e. n≥2) using individual concentration and are expressed with the corresponding standard deviation value and variation coefficient (when calculable, i.e. n≥3), with
[formula] The individual plasma concentrations are tabulated for each rat and scheduled sampling time. Concentrations below the LLOQ are indicated by BLQ. All BLQ concentrations are substituted by zero for calculation of the descriptive statistics of the concentrations. 5. Results Estimation of pharmacokinetics parameters is performed using Kinetica® (Version 4.3—Thermo Electron Corporation—Philadelphia—USA). It was performed by using a one-compartment model approach, which considers the body as a single compartment in which the concentration is homogeneous. The following parameters are estimated: Cmax (ng/mL): maximal plasma concentration Tmax (h): first time to reach Cmax AUCt (ng/mL*h): area under the plasma concentration-time curve from administration up to the last quantifiable concentration at time t
[formula] “BLQ” stands for “Below the Limit of Quantification” ([…] for plasma). Compound 1b

[2] = Faeces concentrations and recovery after IV and PO administration to rats; format: in vivo, Sprague Dawley rats; details: 0-24 h; for dose excreted: Sprague Dawley, rat, faeces
Method: Plasma and faeces concentrations after administration of Compound 1b and for compound 13 of WO 2014/016361 at 1 mg/kg by intravenous route and 10 mg/kg by oral route to Sprague Dawley rats Blank rat faeces are homogenized with 3 volumes of UHQ water until obtention of a paste. Then 100 μL of the homogenate are spiked with the molecules and precipitated with 300 μL of acetonitrile. The concentration ranges tested are: • 0.5 ng/mL to 1000 ng/mL for plasma, • 4 to 2000 ng/g for faeces, corresponding to 1 to 500 ng/mL of faeces homogenate. 3. In-Life Part After administration, the animals are placed in individual metabolic cages in order to collect faeces samples during 24 hours. Faeces samples are collected over the 24 hours of the experiment. They are precisely weighed and 3 volumes of UHQ water are added. The mixture is homogeneized until obtention of a paste. Then 100 μL of the homogenate are taken and extracted with 300 μL of Acetonitrile. Analysis is performed using LC-MS/MS determination according to previous analytical test results.

[3] = male, Sprague Dawley, rat, plasma, IV 1 mg/kg
[4] = male, Sprague Dawley, rat, plasma, PO 10 mg/kg
[5] = IV 1 mg/kg, individual rats IV1-IV3, 1 mg/kg
[6] = PO 10 mg/kg, individual rats PO4-PO6, 10 mg/kg

Cc1nc(-c2cnccn2)sc1C(=O)c1cnc(N[C@H]2O[C@H](CO)[C@@H](O)[C@H](O)[C@@H]2O)s1 [13 of WO 2014/016361]
Plasma concentration ([1]; IV 1 mg/kg, 0.083 h, individual rats IV1-IV3, 1 mg/kg): 1451.7 ng/mL and 1443.6 ng/mL | Plasma concentration ([1]; IV 1 mg/kg, 0.5 h, individual rats IV1-IV3, 1 mg/kg): 67.6 ng/mL and 58.5 ng/mL | Plasma concentration ([1]; IV 1 mg/kg, 2 h, individual rats IV1-IV3, 1 mg/kg): 1.6 ng/mL and 1.8 ng/mL | Plasma concentration ([1]; IV 1 mg/kg, 6 h, individual rats IV1-IV3): BLQ | Plasma concentration ([1]; IV 1 mg/kg, 24 h, individual rats IV1-IV3): BLQ | % AUCextra ([1]; IV 1 mg/kg): 0.11% | Plasma concentration ([1]; PO 10 mg/kg, 0.5 h, individual rats PO4-PO6, 10 mg/kg): 10.9 ng/mL and 7.0 ng/mL | Plasma concentration ([1]; PO 10 mg/kg, 1 h, individual rats PO4-PO6, 10 mg/kg): 4.6 ng/mL and 5.4 ng/mL | Plasma concentration ([1]; PO 10 mg/kg, 2 h, individual rats PO4-PO6, 10 mg/kg): 2.3 ng/mL and 2.0 ng/mL | Plasma concentration ([1]; PO 10 mg/kg, 6 h, individual rats PO4-PO6, 10 mg/kg): 1.9 ng/mL and 1.6 ng/mL | Plasma concentration ([1]; PO 10 mg/kg, 24 h, individual rats PO4-PO6): BLQ | % AUCextra ([1]; PO 10 mg/kg): 32.3% | concentration at 0.083 h ([1]; male, Sprague Dawley, rat, plasma, iv, 1 mg/kg, IV 1 mg/kg, 0.083 h, individual rats IV1-IV3, read-out: Plasma concentration): 1130 ng/mL | concentration at 0.083 h ([1]; male, Sprague Dawley, rat, plasma, iv, 1 mg/kg, IV 1 mg/kg, 0.083 h, mean of 3 rats (BLQ = 0), read-out: Plasma concentration, mean): 1340 ng/mL | concentration at 0.5 h ([1]; male, Sprague Dawley, rat, plasma, iv, 1 mg/kg, IV 1 mg/kg, 0.5 h, individual rats IV1-IV3, read-out: Plasma concentration): 56.1 ng/mL | concentration at 0.5 h ([1]; male, Sprague Dawley, rat, plasma, iv, 1 mg/kg, IV 1 mg/kg, 0.5 h, mean of 3 rats (BLQ = 0), read-out: Plasma concentration, mean): 60.8 ng/mL | concentration at 2 h ([1]; male, Sprague Dawley, rat, plasma, iv, 1 mg/kg, IV 1 mg/kg, 2 h, individual rats IV1-IV3, read-out: Plasma concentration): 1.6 ng/mL | concentration at 2 h ([1]; male, Sprague Dawley, rat, plasma, iv, 1 mg/kg, IV 1 mg/kg, 2 h, mean of 3 rats (BLQ = 0), read-out: Plasma concentration, mean): 1.6 ng/mL | concentration at 6 h ([1]; male, Sprague Dawley, rat, plasma, iv, 1 mg/kg, IV 1 mg/kg, 6 h, mean of 3 rats (BLQ = 0), read-out: Plasma concentration, mean): 0 ng/mL | concentration at 24 h ([1]; male, Sprague Dawley, rat, plasma, iv, 1 mg/kg, IV 1 mg/kg, 24 h, mean of 3 rats (BLQ = 0)): 0 ng/mL | concentration at 0.5 h ([1]; male, Sprague Dawley, rat, plasma, po, 10 mg/kg, PO 10 mg/kg, 0.5 h, individual rats PO4-PO6, read-out: Plasma concentration): 5.5 ng/mL | concentration at 0.5 h ([1]; male, Sprague Dawley, rat, plasma, po, 10 mg/kg, PO 10 mg/kg, 0.5 h, mean of 3 rats (BLQ = 0), read-out: Plasma concentration, mean): 7.8 ng/mL | concentration at 1 h ([1]; male, Sprague Dawley, rat, plasma, po, 10 mg/kg, PO 10 mg/kg, 1 h, individual rats PO4-PO6, read-out: Plasma concentration): 3.3 ng/mL | concentration at 1 h ([1]; male, Sprague Dawley, rat, plasma, po, 10 mg/kg, PO 10 mg/kg, 1 h, mean of 3 rats (BLQ = 0), read-out: Plasma concentration, mean): 4.4 ng/mL | concentration at 2 h ([1]; male, Sprague Dawley, rat, plasma, po, 10 mg/kg, PO 10 mg/kg, 2 h, individual rats PO4-PO6, read-out: Plasma concentration): 1.9 ng/mL | concentration at 2 h ([1]; male, Sprague Dawley, rat, plasma, po, 10 mg/kg, PO 10 mg/kg, 2 h, mean of 3 rats (BLQ = 0), read-out: Plasma concentration, mean): 2 ng/mL | concentration at 6 h ([1]; male, Sprague Dawley, rat, plasma, po, 10 mg/kg, PO 10 mg/kg, 6 h, individual rats PO4-PO6, read-out: Plasma concentration): 1.7 ng/mL | concentration at 6 h ([1]; male, Sprague Dawley, rat, plasma, po, 10 mg/kg, PO 10 mg/kg, 6 h, mean of 3 rats (BLQ = 0), read-out: Plasma concentration, mean): 1.7 ng/mL | concentration at 24 h ([1]; male, Sprague Dawley, rat, plasma, po, 10 mg/kg, PO 10 mg/kg, 24 h, mean of 3 rats (BLQ = 0)): 0 ng/mL | AUC(0-inf) [1, 3]: 452 ng·h/mL | AUC(0-t) [1, 3]: 451 ng·h/mL | Cmax [1, 3]: 1340 ng/mL | Tmax [1, 3]: 4.8 min | bioavailability ([1]; male, Sprague Dawley, rat, plasma, PO 10 mg/kg vs IV 1 mg/kg, calculated based on AUCt, read-out: F (bioavailability)): 0.3% | AUC(0-t) [1, 4]: 16 ng·h/mL | Cmax [1, 4]: 7.79 ng/mL | Tmax [1, 4]: 30 min | AUC(0-inf) ([1]; male, Sprague Dawley, rat, plasma, PO 10 mg/kg, % AUC extra >20%: value given for indication): 23.3 ng·h/mL | Faeces concentration [2, 5]: 3303 ng/g and 3130 ng/g and 3346 ng/g | Faeces concentration (homogenate) [2, 5]: 826 ng/mL and 783 ng/mL and 836 ng/mL | Recovery in faeces [2, 5]: 10.9% and 15.9% | Total amount of compound in faeces [2, 5]: 30095 ng and 28426 ng and 38053 ng | Faeces concentration (homogenate), mean ([2]; IV 1 mg/kg, mean of 3 rats): 815 ng/mL | Faeces concentration, mean ([2]; IV 1 mg/kg, mean of 3 rats): 3260 ng/g | Total amount of compound in faeces, mean ([2]; IV 1 mg/kg, mean of 3 rats): 32191 ng | Faeces concentration [2, 6]: 103917 ng/g and 165663 ng/g and 132537 ng/g | Faeces concentration (homogenate) [2, 6]: 25979 ng/mL and 41416 ng/mL and 33134 ng/mL | Recovery in faeces [2, 6]: 57.9% and 49.3% | Total amount of compound in faeces [2, 6]: 1203583 ng and 1389086 ng and 1183679 ng | Faeces concentration (homogenate), mean ([2]; PO 10 mg/kg, mean of 3 rats): 33510 ng/mL | Faeces concentration, mean ([2]; PO 10 mg/kg, mean of 3 rats): 134039 ng/g | Total amount of compound in faeces, mean ([2]; PO 10 mg/kg, mean of 3 rats): 1258783 ng | dose excreted ([2]; iv, 1 mg/kg, IV 1 mg/kg, individual rats IV1-IV3, read-out: Recovery in faeces): 13.1% | dose excreted ([2]; iv, 1 mg/kg, IV 1 mg/kg, mean of 3 rats, read-out: Recovery in faeces, mean): 13.3% | dose excreted ([2]; po, 10 mg/kg, PO 10 mg/kg, individual rats PO4-PO6, read-out: Recovery in faeces): 50.1%
